Test results from patent publication US9932637B2, “Genetic polymorphisms associated with cardiovascular disorders and drug response, methods of detection and uses thereof” (CELERA CORPORATION, priority 2003, dated 2018).

Test system: patients with prior myocardial infarction (CARE study)
Experiment: CARE: association of SNPs with pravastatin treatment in cardiovascular events prevention (logistic regression, odds ratio pravastatin vs placebo by genotype; Table 8)
Format: in vivo, human
Conditions: for Prava vs. Placebo Odds Ratio, 0 Rare Alleles / Prava vs. Placebo Odds Ratio, 1 Rare Alleles / Prava vs. Placebo Odds Ratio, 2 Rare Alleles: SELP hCV11975296; for Prava vs. Placebo Odds Ratio, 0 Rare Alleles / Prava vs. Placebo Odds Ratio, 1 Rare Alleles / Prava vs. Placebo Odds Ratio, 2 Rare Alleles / Odds ratio pravastatin vs placebo: All Patients; for Any Report of Stroke During CARE, n/total (%) / Fatal/Non-fatal Cerebrovascular Disease, n/total (%): SERPINA1 hCV1260328, All Patients; for Coronary Artery Bypass Graft, n/total (%): SERPINA1 hCV25640505, All Patients; for Fatal/Nonfatal Atherosclerotic CV Disease, n/total (%): SERPINB6 hCV16190893, All Patients; for Fatal CHD/Definite Non-fatal MI, n/total (%): TAP1 hCV549926, All Patients
Excerpt: In order to identify genetic markers associated with acute coronary events (e.g. MI, stroke, unstable angina, congestive heart failure, etc.) or response to statin treatment for the prevention of coronary events, samples from the Cholesterol and Recurrent Events (CARE) study (a randomized multicentral double-blinded trial on secondary prevention of acute coronary events with pravastatin) (Sacks et al., 1991, Am. J. Cardiol. 68: 1436-1446) were genotyped. A well-documented myocardial infarction (MI) was one of the enrollment criteria for entry into the CARE study. Patients were enrolled in the CARE trial from 80 participating study centers. […] Patients were randomized to receive either 40 mg of pravastatin once daily or a matching placebo. The primary endpoint of the trial was death from coronary heart disease and the median duration of follow-up was 5.0 years (range, 4.0 to 6.2 years). […] Secondary endpoints of other related cardiovascular or metabolic disease events, and changes in clinical variables were also recorded in pravastatin-treated and placebo groups. All individuals included in the study had signed a written informed consent form and the study protocol was approved by the respective Institutional Review Boards (IRBs).
For genotyping SNPs in CARE patient samples, DNA was extracted from blood samples using conventional DNA extraction methods such as the QIA-amp kit from Qiagen. Genotypes were obtained on an ABI PRISM® 7900HT Sequence Detection PCR system (Applied Biosystems, Foster City, Calif.) by kinetic allele-specific PCR, similar to the method described by Germer et al. (Germer S., Holland M. J., Higuchi R. 2000, Genome Res. 10: 258-266).
Statistical analysis for association of SNPs with pravastatin treatment in cardiovascular events prevention (Table 8) was carried out using an overall logistic regression model that included an intercept, a parameter for the effect of a genotype containing two rare alleles versus a genotype containing no rare alleles, a parameter for the effect of a genotype containing one rare allele versus a genotype containing no rare alleles, a parameter for the effect of use of pravastatin versus the use of placebo, and parameters for the interaction effects between SNP genotypes and pravastatin use. The test of the overall model is a chi-square test with two degrees of freedom for analyses containing all three genotypes, and one degree of freedom for analyses containing two genotypes.
Effect sizes were estimated through odds ratios (pravastatin group versus placebo) for carriers of each genotype (groups of 0, 1, and 2 minor allele carriers). The effect was considered to be significant if p-value for testing whether any of the interactions between SNP genotypes and pravastatin use were <0.05. […] Odds ratios less than one indicate that the specific SNP allele has a protective effect and odds ratios greater than one indicate that the specific SNP allele has an adverse effect.

[1] = SELP hCV11975296, All Patients, 2 Rare Alleles, Prava arm
[2] = Coronary Artery Bypass or Revascularization
[3] = Hosp. for Cardiovascular Disease
[4] = SN hCV25623265, All Patients, 0 Rare Alleles, Prava arm
[5] = SN hCV25623265, All Patients, 1 Rare Allele, Prava arm
[6] = SN hCV25623265, All Patients, 2 Rare Alleles, Prava arm
[7] = TGFB1 hCV8708473, All Patients, 0 Rare Alleles, Prava arm

## CC[C@H](C)C(=O)O[C@H]1C[C@H](O)C=C2C=C[C@H](C)[C@H](CC[C@@H](O)C[C@@H](O)CC(=O)O)[C@H]21 [pravastatin]
[1]
  Coronary Artery Bypass or Revascularization, n/total (%): (20.3%)
  Hosp. for Cardiovascular Disease, n/total (%): (49.2%)
  Hosp. for Unstable Angina, n/total (%): (27.1%)
[2]
  Prava vs. Placebo Odds Ratio, 0 Rare Alleles: 0.68
  Prava vs. Placebo Odds Ratio, 1 Rare Alleles: 0.63
  Prava vs. Placebo Odds Ratio, 2 Rare Alleles: 5.74
[3]
  Prava vs. Placebo Odds Ratio, 0 Rare Alleles: 0.81
  Prava vs. Placebo Odds Ratio, 1 Rare Alleles: 0.62
  Prava vs. Placebo Odds Ratio, 2 Rare Alleles: 1.71
Hosp. for Unstable Angina
  Prava vs. Placebo Odds Ratio, 0 Rare Alleles: 0.82
  Prava vs. Placebo Odds Ratio, 1 Rare Alleles: 0.69
  Prava vs. Placebo Odds Ratio, 2 Rare Alleles: 5.45
0 Rare Alleles, Prava arm
  Any Report of Stroke During CARE, n/total (%): (2.9%)
  Fatal/Non-fatal Cerebrovascular Disease, n/total (%): (5.9%)
  Coronary Artery Bypass Graft, n/total (%): (6.1%)
  Fatal/Nonfatal Atherosclerotic CV Disease, n/total (%): (34.9%)
  Fatal CHD/Definite Non-fatal MI, n/total (%): (10.0%)
1 Rare Allele, Prava arm
  Any Report of Stroke During CARE, n/total (%): (1.2%)
  Fatal/Non-fatal Cerebrovascular Disease, n/total (%): (2.8%)
  Coronary Artery Bypass Graft, n/total (%): (9.0%)
  Fatal/Nonfatal Atherosclerotic CV Disease, n/total (%): (32.4%)
  Fatal CHD/Definite Non-fatal MI, n/total (%): (8.2%)
2 Rare Alleles, Prava arm
  Any Report of Stroke During CARE, n/total (%): (1.4%)
  Fatal/Non-fatal Cerebrovascular Disease, n/total (%): (2.7%)
  Coronary Artery Bypass Graft, n/total (%): (7.4%)
  Fatal/Nonfatal Atherosclerotic CV Disease, n/total (%): (29.7%)
  Fatal CHD/Definite Non-fatal MI, n/total (%): (4.1%)
SERPINA1 hCV1260328, Any Report of Stroke During CARE, 0 rare alleles
  Odds ratio pravastatin vs placebo: 0.87
SERPINA1 hCV1260328, Any Report of Stroke During CARE, 1 rare allele
  Odds ratio pravastatin vs placebo: 0.23
SERPINA1 hCV1260328, Any Report of Stroke During CARE, 2 rare alleles
  Odds ratio pravastatin vs placebo: 0.21
SERPINA1 hCV1260328, Fatal/Non-fatal Cerebrovascular Disease, 0 rare alleles
  Odds ratio pravastatin vs placebo: 1.03
SERPINA1 hCV1260328, Fatal/Non-fatal Cerebrovascular Disease, 1 rare allele
  Odds ratio pravastatin vs placebo: 0.36
SERPINA1 hCV1260328, Fatal/Non-fatal Cerebrovascular Disease, 2 rare alleles
  Odds ratio pravastatin vs placebo: 0.17
[4]
  Coronary Artery Bypass or Revascularization, n/total (%): (13.0%)
  Definite Nonfatal MI, n/total (%): (8.2%)
  Fatal CHD/Definite Nonfatal MI, n/total (%): (9.7%)
  Percutaneous Transluminal Coronary Angioplas, n/total (%): (7.5%)
  Total Coronary Heart Disease Events, n/total (%): (27.2%)
[5]
  Coronary Artery Bypass or Revascularization, n/total (%): (14.9%)
  Definite Nonfatal MI, n/total (%): (7.6%)
  Fatal CHD/Definite Nonfatal MI, n/total (%): (10.8%)
  Percutaneous Transluminal Coronary Angioplas, n/total (%): (9.5%)
  Total Coronary Heart Disease Events, n/total (%): (30.5%)
[6]
  Coronary Artery Bypass or Revascularization, n/total (%): (15.0%)
  Definite Nonfatal MI, n/total (%): (2.8%)
  Fatal CHD/Definite Nonfatal MI, n/total (%): (4.6%)
  Percutaneous Transluminal Coronary Angioplas, n/total (%): (9.8%)
  Total Coronary Heart Disease Events, n/total (%): (28.2%)
TAP1 hCV549926, Fatal CHD/Definite Non-fatal MI, 0 rare alleles
  Odds ratio pravastatin vs placebo: 0.85
TAP1 hCV549926, Fatal CHD/Definite Non-fatal MI, 1 rare allele
  Odds ratio pravastatin vs placebo: 0.54
TAP1 hCV549926, Fatal CHD/Definite Non-fatal MI, 2 rare alleles
  Odds ratio pravastatin vs placebo: 0.16
[7]
  Any Report of Stroke Prior to or During CARE, n/total (%): (7.5%)
  Cardiovascular Mortality, n/total (%): (5.5%)
  Fatal Atherosclerotic Cardiovascular Disease, n/total (%): (5.4%)
  Fatal Coronary Heart Disease, n/total (%): (5.1%)
  Fatal/Non-fatal Atherosclerotic CV Disease, n/total (%): (37.2%)
  Total Coronary Heart Disease Events, n/total (%): (32.1%)
  Total Mortality, n/total (%): (7.2%)
